Assay results taken from ChEMBL document CHEMBL5442219.

Key:
Settings in all cases: Compound concentration 10 µM
[1] = molecular target: D(3) dopamine receptor (Homo sapiens) (UniProt P35462)
[2] = molecular target: Histamine H2 receptor (Homo sapiens) (UniProt P25021)
[3] = molecular target: 5-hydroxytryptamine receptor 1D (Homo sapiens) (UniProt P28221)
[4] = molecular target: 5-hydroxytryptamine receptor 2A (Homo sapiens) (UniProt P28223)
[5] = molecular target: Beta-3 adrenergic receptor (Homo sapiens) (UniProt P13945)
[6] = molecular target: D(1B) dopamine receptor (Homo sapiens) (UniProt P21918)
[7] = molecular target: T1, D(4) dopamine receptor (Homo sapiens) (UniProt P21917)
T1 sequence (whole entry): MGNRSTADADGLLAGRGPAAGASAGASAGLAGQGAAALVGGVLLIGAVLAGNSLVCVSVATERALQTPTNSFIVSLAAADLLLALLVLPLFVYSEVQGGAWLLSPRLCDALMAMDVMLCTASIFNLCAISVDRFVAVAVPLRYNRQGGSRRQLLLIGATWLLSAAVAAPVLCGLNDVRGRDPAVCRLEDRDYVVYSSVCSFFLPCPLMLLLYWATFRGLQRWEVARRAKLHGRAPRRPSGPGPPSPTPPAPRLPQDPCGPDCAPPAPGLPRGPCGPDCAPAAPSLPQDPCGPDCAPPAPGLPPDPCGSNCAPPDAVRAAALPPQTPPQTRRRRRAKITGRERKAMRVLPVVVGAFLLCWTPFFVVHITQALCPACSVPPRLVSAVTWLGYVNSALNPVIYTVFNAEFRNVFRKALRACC

[8] = molecular target: Muscarinic acetylcholine receptor M3 (Homo sapiens) (UniProt P20309)
[9] = molecular target: Histamine H4 receptor (Homo sapiens) (UniProt Q9H3N8)
[10] = molecular target: T2, 5-hydroxytryptamine receptor 3A (Homo sapiens) (UniProt P46098)
T2 sequence (whole entry): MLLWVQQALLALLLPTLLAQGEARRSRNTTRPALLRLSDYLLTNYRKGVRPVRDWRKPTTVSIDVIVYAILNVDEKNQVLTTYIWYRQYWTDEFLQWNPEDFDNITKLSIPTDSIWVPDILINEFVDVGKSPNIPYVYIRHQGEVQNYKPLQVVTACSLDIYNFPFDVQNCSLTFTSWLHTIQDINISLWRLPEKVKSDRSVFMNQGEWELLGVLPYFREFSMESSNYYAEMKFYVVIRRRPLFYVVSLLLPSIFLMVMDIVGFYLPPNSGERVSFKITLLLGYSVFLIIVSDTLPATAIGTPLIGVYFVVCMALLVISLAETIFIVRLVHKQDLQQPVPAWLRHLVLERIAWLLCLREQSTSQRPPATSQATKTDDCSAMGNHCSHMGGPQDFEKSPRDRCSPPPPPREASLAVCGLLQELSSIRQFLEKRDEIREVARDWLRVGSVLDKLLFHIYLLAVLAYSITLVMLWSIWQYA

[11] = molecular target: D(1A) dopamine receptor (Homo sapiens) (UniProt P21728)
[12] = molecular target: Sodium-dependent dopamine transporter (Homo sapiens) (UniProt Q01959)
[13] = molecular target: Sodium-dependent serotonin transporter (Homo sapiens) (UniProt P31645)
[14] = molecular target: Sigma intracellular receptor 2 (Homo sapiens) (UniProt Q5BJF2)
[15] = molecular target: 5-hydroxytryptamine receptor 6 (Homo sapiens) (UniProt P50406)
[16] = molecular target: Kappa-type opioid receptor (Homo sapiens) (UniProt P41145)
[17] = molecular target: T3, Muscarinic acetylcholine receptor M2 (Homo sapiens) (UniProt P08172)
T3 sequence (whole entry): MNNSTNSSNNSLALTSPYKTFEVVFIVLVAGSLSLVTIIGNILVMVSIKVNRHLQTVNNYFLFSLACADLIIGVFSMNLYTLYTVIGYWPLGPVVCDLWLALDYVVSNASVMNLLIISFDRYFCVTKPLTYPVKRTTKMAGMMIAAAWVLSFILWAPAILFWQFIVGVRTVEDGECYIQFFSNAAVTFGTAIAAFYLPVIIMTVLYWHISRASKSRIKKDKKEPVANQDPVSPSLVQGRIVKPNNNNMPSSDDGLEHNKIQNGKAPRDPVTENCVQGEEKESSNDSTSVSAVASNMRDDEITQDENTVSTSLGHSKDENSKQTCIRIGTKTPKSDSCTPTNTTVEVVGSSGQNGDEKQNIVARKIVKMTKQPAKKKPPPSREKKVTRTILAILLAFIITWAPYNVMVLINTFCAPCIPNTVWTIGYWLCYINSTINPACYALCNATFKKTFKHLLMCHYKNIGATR

[18] = molecular target: 5-hydroxytryptamine receptor 2B (Homo sapiens) (UniProt P41595)
[19] = molecular target: Beta-1 adrenergic receptor (Homo sapiens) (UniProt P08588)
[20] = molecular target: Histamine H3 receptor (Homo sapiens) (UniProt Q9Y5N1)
[21] = molecular target: Delta-type opioid receptor (Homo sapiens) (UniProt P41143)

Sequence of Sodium-dependent dopamine transporter (Homo sapiens) (Q01959 whole entry): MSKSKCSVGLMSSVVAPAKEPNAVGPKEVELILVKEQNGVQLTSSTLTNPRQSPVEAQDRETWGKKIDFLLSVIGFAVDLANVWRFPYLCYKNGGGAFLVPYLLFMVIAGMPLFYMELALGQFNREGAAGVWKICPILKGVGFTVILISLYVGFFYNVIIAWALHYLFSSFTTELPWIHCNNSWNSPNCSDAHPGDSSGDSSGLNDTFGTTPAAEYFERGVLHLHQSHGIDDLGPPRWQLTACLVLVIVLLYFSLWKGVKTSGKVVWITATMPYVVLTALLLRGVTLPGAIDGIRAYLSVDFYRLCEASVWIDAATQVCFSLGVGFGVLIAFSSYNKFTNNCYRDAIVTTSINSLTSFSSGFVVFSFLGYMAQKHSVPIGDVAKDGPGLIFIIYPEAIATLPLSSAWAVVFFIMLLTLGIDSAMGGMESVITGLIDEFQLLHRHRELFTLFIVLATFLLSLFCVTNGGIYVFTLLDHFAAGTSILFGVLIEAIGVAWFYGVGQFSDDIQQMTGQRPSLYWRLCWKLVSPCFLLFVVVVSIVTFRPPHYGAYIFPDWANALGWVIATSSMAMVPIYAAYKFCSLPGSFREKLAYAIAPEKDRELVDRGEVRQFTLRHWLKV
Sequence of 5-hydroxytryptamine receptor 1D (Homo sapiens) (P28221 whole entry): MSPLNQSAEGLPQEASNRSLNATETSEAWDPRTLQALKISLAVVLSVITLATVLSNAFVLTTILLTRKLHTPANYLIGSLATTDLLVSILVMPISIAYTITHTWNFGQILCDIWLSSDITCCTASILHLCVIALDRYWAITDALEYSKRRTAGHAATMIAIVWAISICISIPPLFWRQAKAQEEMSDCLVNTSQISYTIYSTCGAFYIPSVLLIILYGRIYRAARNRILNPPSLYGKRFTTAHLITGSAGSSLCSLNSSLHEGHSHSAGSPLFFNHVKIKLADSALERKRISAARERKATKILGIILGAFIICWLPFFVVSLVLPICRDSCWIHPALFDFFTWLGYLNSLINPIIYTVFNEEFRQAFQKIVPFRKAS
Sequence of Muscarinic acetylcholine receptor M3 (Homo sapiens) (P20309 whole entry, looked up): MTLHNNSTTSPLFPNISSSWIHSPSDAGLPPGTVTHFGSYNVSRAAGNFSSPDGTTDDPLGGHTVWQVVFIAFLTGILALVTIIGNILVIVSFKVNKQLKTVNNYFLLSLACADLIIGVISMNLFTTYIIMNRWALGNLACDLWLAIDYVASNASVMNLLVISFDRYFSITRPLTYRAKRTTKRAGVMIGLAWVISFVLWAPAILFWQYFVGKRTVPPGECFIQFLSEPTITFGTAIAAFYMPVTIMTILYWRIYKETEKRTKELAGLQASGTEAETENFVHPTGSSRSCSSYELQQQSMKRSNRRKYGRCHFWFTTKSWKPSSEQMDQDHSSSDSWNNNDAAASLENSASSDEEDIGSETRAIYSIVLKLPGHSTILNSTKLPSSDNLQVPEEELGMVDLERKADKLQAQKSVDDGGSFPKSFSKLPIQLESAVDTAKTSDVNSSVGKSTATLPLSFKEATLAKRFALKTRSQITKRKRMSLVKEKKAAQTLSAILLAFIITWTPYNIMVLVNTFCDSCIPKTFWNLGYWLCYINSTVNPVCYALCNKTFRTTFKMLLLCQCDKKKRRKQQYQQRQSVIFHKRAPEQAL
Sequence of Histamine H4 receptor (Homo sapiens) (Q9H3N8 whole entry): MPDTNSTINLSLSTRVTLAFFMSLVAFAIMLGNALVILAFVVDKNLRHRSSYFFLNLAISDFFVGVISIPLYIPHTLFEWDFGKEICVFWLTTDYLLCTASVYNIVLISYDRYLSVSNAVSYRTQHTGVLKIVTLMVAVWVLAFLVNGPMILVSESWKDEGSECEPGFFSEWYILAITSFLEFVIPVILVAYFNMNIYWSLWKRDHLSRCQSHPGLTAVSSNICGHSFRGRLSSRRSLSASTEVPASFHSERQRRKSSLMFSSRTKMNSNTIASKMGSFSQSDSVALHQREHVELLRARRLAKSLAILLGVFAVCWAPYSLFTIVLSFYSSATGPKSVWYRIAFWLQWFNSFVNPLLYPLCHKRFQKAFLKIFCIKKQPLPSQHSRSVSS
Sequence of 5-hydroxytryptamine receptor 2A (Homo sapiens) (P28223 whole entry): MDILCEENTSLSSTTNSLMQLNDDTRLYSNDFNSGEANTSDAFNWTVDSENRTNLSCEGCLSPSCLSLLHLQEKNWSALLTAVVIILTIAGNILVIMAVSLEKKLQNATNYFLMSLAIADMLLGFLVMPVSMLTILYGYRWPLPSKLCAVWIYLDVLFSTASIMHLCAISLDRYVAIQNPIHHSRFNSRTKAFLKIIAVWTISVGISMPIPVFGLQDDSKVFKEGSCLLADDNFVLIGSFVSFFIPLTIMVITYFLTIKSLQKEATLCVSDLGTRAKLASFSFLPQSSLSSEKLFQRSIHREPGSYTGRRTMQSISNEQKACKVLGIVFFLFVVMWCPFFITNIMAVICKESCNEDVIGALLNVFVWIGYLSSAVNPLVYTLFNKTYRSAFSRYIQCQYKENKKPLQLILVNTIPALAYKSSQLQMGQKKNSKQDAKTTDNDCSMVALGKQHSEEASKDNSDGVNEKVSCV
Sequence of Sodium-dependent serotonin transporter (Homo sapiens) (P31645 whole entry, looked up): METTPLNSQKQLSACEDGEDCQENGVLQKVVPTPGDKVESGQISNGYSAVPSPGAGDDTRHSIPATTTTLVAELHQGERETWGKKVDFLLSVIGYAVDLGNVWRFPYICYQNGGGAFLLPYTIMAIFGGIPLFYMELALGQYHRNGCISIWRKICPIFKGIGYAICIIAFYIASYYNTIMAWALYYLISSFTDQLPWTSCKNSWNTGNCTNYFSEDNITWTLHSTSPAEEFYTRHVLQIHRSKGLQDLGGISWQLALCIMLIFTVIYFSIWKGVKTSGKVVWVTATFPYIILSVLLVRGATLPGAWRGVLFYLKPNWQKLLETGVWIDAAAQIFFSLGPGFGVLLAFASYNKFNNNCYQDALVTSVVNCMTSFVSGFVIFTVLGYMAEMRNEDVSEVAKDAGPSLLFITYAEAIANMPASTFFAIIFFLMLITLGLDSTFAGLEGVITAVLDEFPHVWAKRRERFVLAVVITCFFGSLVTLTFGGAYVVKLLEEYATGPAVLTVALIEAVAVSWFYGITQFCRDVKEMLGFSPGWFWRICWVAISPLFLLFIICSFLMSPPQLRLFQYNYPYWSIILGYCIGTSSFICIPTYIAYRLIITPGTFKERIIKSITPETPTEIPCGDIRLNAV
Sequence of 5-hydroxytryptamine receptor 6 (Homo sapiens) (P50406 whole entry): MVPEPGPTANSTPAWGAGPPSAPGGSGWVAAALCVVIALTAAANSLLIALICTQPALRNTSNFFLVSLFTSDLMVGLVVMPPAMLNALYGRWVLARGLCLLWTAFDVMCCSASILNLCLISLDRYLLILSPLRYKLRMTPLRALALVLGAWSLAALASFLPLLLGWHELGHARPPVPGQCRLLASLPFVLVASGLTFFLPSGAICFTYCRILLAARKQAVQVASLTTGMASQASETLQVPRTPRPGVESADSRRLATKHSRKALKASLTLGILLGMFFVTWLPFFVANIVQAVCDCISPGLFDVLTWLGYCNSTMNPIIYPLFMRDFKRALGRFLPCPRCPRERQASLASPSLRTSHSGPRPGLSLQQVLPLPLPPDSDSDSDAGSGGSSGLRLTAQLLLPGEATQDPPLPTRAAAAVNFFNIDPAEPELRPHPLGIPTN
Sequence of D(1A) dopamine receptor (Homo sapiens) (P21728 whole entry): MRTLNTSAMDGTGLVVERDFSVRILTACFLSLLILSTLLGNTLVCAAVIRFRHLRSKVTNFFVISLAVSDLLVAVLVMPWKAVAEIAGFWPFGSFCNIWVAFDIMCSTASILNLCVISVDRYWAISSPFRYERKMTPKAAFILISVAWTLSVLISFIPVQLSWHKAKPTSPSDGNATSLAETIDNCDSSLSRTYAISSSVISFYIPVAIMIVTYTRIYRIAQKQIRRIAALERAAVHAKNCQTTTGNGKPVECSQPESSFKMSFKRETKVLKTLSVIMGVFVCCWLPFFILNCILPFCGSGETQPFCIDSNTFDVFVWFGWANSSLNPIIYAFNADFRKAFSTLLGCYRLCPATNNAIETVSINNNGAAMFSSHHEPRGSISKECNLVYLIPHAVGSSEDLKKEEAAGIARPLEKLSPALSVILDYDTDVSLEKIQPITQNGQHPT
Sequence of Histamine H2 receptor (Homo sapiens) (P25021 whole entry): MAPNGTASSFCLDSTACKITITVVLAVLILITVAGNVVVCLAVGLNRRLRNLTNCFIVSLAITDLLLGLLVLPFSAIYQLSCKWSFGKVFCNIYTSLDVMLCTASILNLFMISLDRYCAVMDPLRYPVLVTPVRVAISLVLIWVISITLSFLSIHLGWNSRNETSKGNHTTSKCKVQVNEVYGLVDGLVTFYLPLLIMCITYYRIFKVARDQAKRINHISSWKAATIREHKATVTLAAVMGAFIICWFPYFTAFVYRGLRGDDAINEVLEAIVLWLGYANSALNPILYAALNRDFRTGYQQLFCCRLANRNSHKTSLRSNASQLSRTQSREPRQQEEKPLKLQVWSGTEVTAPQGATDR
Sequence of D(1B) dopamine receptor (Homo sapiens) (P21918 whole entry): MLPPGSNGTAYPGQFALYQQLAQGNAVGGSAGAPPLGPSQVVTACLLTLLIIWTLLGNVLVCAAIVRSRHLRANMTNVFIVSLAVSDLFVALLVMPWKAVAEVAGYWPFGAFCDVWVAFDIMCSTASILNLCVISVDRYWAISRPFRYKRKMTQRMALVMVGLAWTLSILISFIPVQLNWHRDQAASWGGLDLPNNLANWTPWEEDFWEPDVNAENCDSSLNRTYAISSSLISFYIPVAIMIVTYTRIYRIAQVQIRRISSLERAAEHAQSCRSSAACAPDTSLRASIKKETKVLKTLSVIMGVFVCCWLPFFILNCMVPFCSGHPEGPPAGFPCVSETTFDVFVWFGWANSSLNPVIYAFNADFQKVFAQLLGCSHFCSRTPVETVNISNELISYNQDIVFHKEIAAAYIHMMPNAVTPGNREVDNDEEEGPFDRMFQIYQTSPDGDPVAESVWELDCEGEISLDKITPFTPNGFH

For `COc1ccc(OC(F)(F)F)cc1CN[C@H]1CCCN[C@H]1c1ccccc1`, the inhibition [1] was 36.3%, the inhibition [2] was 42.3% and the inhibition [3] was -4.51%. It also gave an inhibition [4] of 64.8%, an inhibition [5] of 6.31% and an inhibition [6] of -8.91%. It also gave an inhibition [7] of -2.15%, an inhibition [8] of -8.99% and an inhibition [9] of 1.14%. The inhibition [10] was 13.1%, the inhibition [11] was 4.84% and the inhibition [12] was 57.6%. The inhibition [13] was 38.8%, the inhibition [14] was 90.5% and the inhibition [15] was 23.8%. The inhibition [16] was 21.1%, the inhibition [17] was 12.9% and the inhibition [18] was 87.7%. It also gave an inhibition [19] of 1.65%.

`COc1ccc(S(=O)(=O)N2c3ccc(Cl)cc3[C@](O)(c3ccccc3Cl)[C@@H]2C(=O)N2CCC[C@H]2C(N)=O)cc1OC` showed an inhibition [1] of 40.4%, an inhibition [2] of 15.4% and an inhibition [3] of 6.02%. The inhibition [4] was -2.13%, the inhibition [5] was 31.7% and the inhibition [7] was -3.97%. For the same compound, the inhibition [20] was 7.89%, the inhibition [9] was 21.7% and the inhibition [10] was -3.87%. The inhibition [12] was 42.4%, the inhibition [13] was 46.5% and the inhibition [15] was -1.14%. It also gave an inhibition [16] of 16.3%, an inhibition [21] of 19% and an inhibition [17] of 29.5%. The inhibition [18] was 0.08% and the inhibition [19] was 28.5%.

`CCCCCNC(=N)N/N=C/c1c[nH]c2ccc(OC)cc12` was tested, and the inhibition [1] was 70%, the inhibition [2] was 23.9% and the inhibition [3] was 76.3%. The inhibition [4] was 93.7%, the inhibition [5] was 89.7% and the inhibition [6] was 54.4%. The inhibition [7] was 87.3%, the inhibition [8] was 7.96% and the inhibition [20] was 19%. For the same compound, the inhibition [9] was 27.9%, the inhibition [10] was 70.2% and the inhibition [11] was 47.1%. For the same compound, the inhibition [12] was 69.1%, the inhibition [13] was 57.7% and the inhibition [14] was 94.2%. For the same compound, the inhibition [15] was 89%, the inhibition [16] was 35.1% and the inhibition [21] was 12.6%. The inhibition [17] was 38.2% and the inhibition [18] was 100%.

In the case of `C[C@@H](NCCc1ccc(O)cc1)[C@@H](O)c1ccc(O)cc1` (relative stereo), the inhibition [1] was 34.6%, the inhibition [2] was 8.2% and the inhibition [4] was 5.36%. It also gave an inhibition [5] of 56.6%, an inhibition [7] of -1.86% and an inhibition [8] of 18.1%. It also gave an inhibition [20] of 0.59%, an inhibition [9] of 5.86% and an inhibition [11] of -9.44%. For the same compound, the inhibition [12] was 39.6%, the inhibition [13] was 52.3% and the inhibition [14] was 58.1%. It also gave an inhibition [16] of 23.2%, an inhibition [21] of 17.5% and an inhibition [17] of 3.91%. The inhibition [18] was 34.1% and the inhibition [19] was 13.4%.

For `CCc1ccc(OCc2ccccc2C(=O)Nc2ccc3nc(C)cc(N)c3c2)cc1`, the inhibition [1] was 33.9%, the inhibition [2] was 46.7% and the inhibition [3] was 59.3%. It also gave an inhibition [4] of 83.4%, an inhibition [5] of 68.6% and an inhibition [6] of 39.1%. It also gave an inhibition [7] of 21.3%, an inhibition [8] of 11.1% and an inhibition [9] of 36.6%. It also gave an inhibition [10] of 24.7%, an inhibition [11] of 47.8% and an inhibition [12] of 68.4%. For the same compound, the inhibition [13] was 36%, the inhibition [14] was 91.7% and the inhibition [15] was 46.5%. The inhibition [16] was 72%, the inhibition [21] was -2.98% and the inhibition [17] was 11.9%. It also gave an inhibition [18] of 74.8% and an inhibition [19] of 3.07%.

`Cc1csc2c(N[C@@H](C)CN3CCN(S(=O)(=O)c4ccc(Cl)c(Cl)c4)CC3)ncnc12` gave an inhibition [1] of 67.4%, an inhibition [2] of 45.2% and an inhibition [4] of 31%. The inhibition [5] was 60.6%, the inhibition [6] was 5.96% and the inhibition [7] was 19.2%. For the same compound, the inhibition [8] was -6%, the inhibition [20] was 2.97% and the inhibition [9] was 9.69%. It also gave an inhibition [11] of -2.84%, an inhibition [13] of 44.9% and an inhibition [14] of 73.2%. It also gave an inhibition [15] of 12.8%, an inhibition [16] of 85.4% and an inhibition [21] of 4.01%. The inhibition [17] was 1.88%, the inhibition [18] was 32.3% and the inhibition [19] was 26.2%.

`CC[C@@H]1CN2C(=O)N(C)c3nc(-c4ccccc4)[nH]c3C2=N1` was tested, and the inhibition [1] was 27.9%, the inhibition [2] was 0.52% and the inhibition [4] was 53.6%. For the same compound, the inhibition [5] was 19.4%, the inhibition [6] was 9.96% and the inhibition [7] was 10.4%. The inhibition [8] was -6.97%, the inhibition [20] was -5.22% and the inhibition [9] was -3.92%. For the same compound, the inhibition [12] was 0.34%, the inhibition [13] was -6.29% and the inhibition [14] was 4.68%. The inhibition [15] was 10.3%, the inhibition [16] was 6.33% and the inhibition [21] was -7.99%. For the same compound, the inhibition [17] was -8.11%, the inhibition [18] was -1.79% and the inhibition [19] was 21.2%.

`CCCCCNC(=O)NS(=O)(=O)c1cc([N+](=O)[O-])ccc1NC1CCCCC1` was tested, and the inhibition [1] was 52.2%, the inhibition [2] was -2.95% and the inhibition [3] was 12.4%. It also gave an inhibition [5] of 39.7%, an inhibition [6] of 4.44% and an inhibition [8] of 16.6%. The inhibition [20] was 11.4%, the inhibition [9] was 16.9% and the inhibition [10] was -7.62%. For the same compound, the inhibition [11] was -2.52%, the inhibition [12] was 26.3% and the inhibition [13] was 85.4%. It also gave an inhibition [14] of 3.25%, an inhibition [15] of 12.8% and an inhibition [16] of 14.7%. For the same compound, the inhibition [21] was 8.56%, the inhibition [17] was -9.24% and the inhibition [18] was -9.68%. For the same compound, the inhibition [19] was 18.5%.

With `CC(C)(N)C(=O)N[C@H](COCc1ccccc1)C(=O)N1CCC2(CC1)CN(S(C)(=O)=O)c1ccccc12` the inhibition [1] was 25.7%, the inhibition [2] was 5.6% and the inhibition [3] was 30.2%. It also gave an inhibition [4] of 6.83%, an inhibition [5] of 15.2% and an inhibition [6] of -1.48%. It also gave an inhibition [20] of -0.42%, an inhibition [9] of 4.09% and an inhibition [10] of 17.7%. For the same compound, the inhibition [12] was 39.5%, the inhibition [13] was 23.6% and the inhibition [14] was 21.1%. It also gave an inhibition [15] of 5.9%, an inhibition [16] of 17.4% and an inhibition [21] of 3.11%. It also gave an inhibition [17] of 1.1%, an inhibition [18] of 3.09% and an inhibition [19] of 30.4%.

`COc1ccc(/C=C/CCCCOc2ccc(C(=O)c3cccc(C(=O)O)c3)cc2CCC(=O)O)cc1` was tested, and the inhibition [1] was 56.1%, the inhibition [2] was 21.3% and the inhibition [3] was 31.8%. It also gave an inhibition [4] of 33.6%, an inhibition [5] of 30.7% and an inhibition [8] of -5.39%. The inhibition [20] was 10.8%, the inhibition [9] was 4.74% and the inhibition [10] was -4.61%. The inhibition [11] was -0.17%, the inhibition [12] was 23.6% and the inhibition [13] was 11.1%. It also gave an inhibition [14] of 2.85%, an inhibition [15] of 29.1% and an inhibition [16] of 10.7%. For the same compound, the inhibition [21] was 46.8%, the inhibition [17] was 7.46% and the inhibition [18] was -2.42%. For the same compound, the inhibition [19] was 49.6%.

For `CN1C2CCC1CC(OC(c1ccc(F)cc1)c1ccc(F)cc1)C2` (stereo not given), the inhibition [1] was 79.5%, the inhibition [2] was 86.9% and the inhibition [3] was 74%. It also gave an inhibition [4] of 99.6%, an inhibition [5] of 36% and an inhibition [6] of 66.6%. For the same compound, the inhibition [7] was 21%, the inhibition [8] was 95.9% and the inhibition [20] was -0.82%. For the same compound, the inhibition [9] was 67.8%, the inhibition [10] was 79.5% and the inhibition [11] was 83%. The inhibition [12] was 96.9%, the inhibition [13] was 15.4% and the inhibition [14] was 100%. For the same compound, the inhibition [15] was 96.1%, the inhibition [16] was 65.7% and the inhibition [17] was 111%. The inhibition [18] was 102% and the inhibition [19] was 33%.
